Results reported in patent US11969402B2, “Compositions and methods for skin rejuvenation” (THE JOHNS HOPKINS UNIVERSITY, priority 2019, dated 2024).

Assays:
Type in all cases: cell-based
[1] = system: human scalp keratinocytes; test: Western blot / immunostaining of ALDH1A3, KRT15, KRT19 in human keratinocytes; conditions: for ALDH1A3 protein: human keratinocytes, western blot
Experimental: BMS493 treatment. BMS493 pan-RARs antagonist (1 μM) was pre-treated into keratinocytes for an hour and cells were incubated with RA (0.1 μM and 0.5 μM for human and mouse keratinocytes, respectively) or Poly (I:C) (0.1 μg per ml for both human and mouse keratinocytes) for 48 hrs. At the end of the experiment, cells were harvested for RNA and protein extraction to do further analysis including qRT-PCR and western blot.
Western blot analysis. Human and mouse keratinocytes were disrupted in M-PER lysis buffer (Thermo Fisher Scientific, #78501) containing protease inhibitors (Thermo Fisher Scientific, #87786) using ultrasonic homogenizer (20% power with 5 times every 2 seconds) to extract proteins. Then, protein concentrations were determined by BCA method (Thermo Fisher Scientific, #23225). Western blot procedures were followed by the protocol of NuPAGE system (Thermo Fisher Scientific). Briefly, 20 μg of protein samples were loaded for electrophoresis and transferred to polyvinylidene di-fluoride (PVDF) membrane (Bio-Rad, Hercules, CA). After blocking for at least an hour in 5% non-fat dry milk, the membrane was incubated with primary antibodies with appropriate dilutions (Table 2) at 4° C. overnight and followed by incubation with secondary antibodies for 1 hour at room temperature. Protein amounts were normalized to rabbit polyclonal anti-human β-actin antibody (1:1,000 dilution) (Cell Signaling Technology). Finally, proteins were visualized using SuperSignal West Pico PLUS chemiluminescent substrate kit (Thermo Fisher Scientific, #34577) and saved as image files using ChemiDoc XRS^+ (Bio-Rad). The signal intensity of protein was quantified using Image Lab software (Bio-Rad). Original images of representative blots were provided in the Source data file.
Immunofluorescence. For tissues, frozen-sections of mouse skin samples were stained with primary antibodies with appropriate dilution at 4° C. overnight, followed by incubation with goat anti-rabbit IgG labeled with Alexa Flour® 488 (Life Technologies) and 594 (Life Technologies) for 1 hour at room temperature. For cells, keratinocytes (3×10^5 cells) plated on cover-slip were fixed with 4% Paraformaldehyde (PFA) for 10 min, permeabilized in PBS including 0.5% Triton X-100 for 15 min at room temperature. After washing with PBS 3 times, cells were stained with primary antibodies overnight at 4° C., followed by incubation with goat anti-rabbit or mouse IgG labeled with Alexa Flour® 488 for 1 hour at room temperature. Cell nuclei were visualized by mounting medium including DAPI (Vector Laboratories, Burlingame, CA, H-1200). Fluorescence images were observed by fluorescence microscopy (Leica microsystems), taken pictures with ×100 (low magnification) and ×200 (high magnification), and saved as image files.

[2] = system: human scalp keratinocytes; test: Retinoid levels (RA by LC-MS/MS, ROL and RE by HPLC-UV) in keratinocytes
Source text: Small interference RNA (siRNA) transfection. Human ALDH1A2 (Santa Cruz Biotechnology, sc41443), ALDH1A3 (Santa Cruz Biotechnology, sc43611), TLR3 (Dharmacon, M-007745-00), TRIF (Santa Cruz Biotechnology, sc106845), IRF3 (Santa Cruz Biotechnology, sc35710), NF-κB (Santa Cruz Biotechnology, sc29410) and non-targeting control (scramble) siRNAs (Santa Cruz Biotechnology, sc37007 & Dharmacon, D-001210) were commercially provided. Human scalp keratinocytes (3×10^5 cells per well) in 12-well plates were transfected with 20 nM of siRNAs using Lipofectamine® RNAiMAX (Thermo Fisher Scientific, #13778150) following the manufacturer's directions. Poly (I:C) (0.1 μg per ml) was applied to transfected cells and incubated for 48 hrs. At the end of transfection period, cells were harvested to isolate protein to perform qRT-PCR, western blot, and RA mass spectrometry.
IL6 treatment. Recombinant human interleukin 6 (rhIL6) (R&D system; 206-IL-010) was treated into human scalp keratinocytes with dose-dependent manners (0, 10, 50, and 100 ng per ml) for 2 days. Cells were harvested and lysates were used for RA measurement.
Determination of Retinoid Levels. For in vitro samples, human scalp keratinocytes were incubated with 0.5 μg per ml of Poly (I:C) for 48 hrs or siRNAs-transfected cells were incubated with 0.1 μg per ml of Poly (I:C) for 48 hrs. For in vivo samples, skin was analyzed from wild-type and Tlr3^−/− unwounded and wounded skin where wound regions (center and edge area) were cut by scalpel. Human skin was analyzed for retinoids with and without CO2 laser treatment as described. All samples were frozen at collection and stored at −80° C. until extraction. For in vitro experiments, media and cell pellets were analyzed separately. For in vivo experiments, tissues were homogenized in saline. Extraction of retinoids was performed under yellow lights using a two-step liquid-liquid extraction that has been described in detail previously using 4,4-dimethyl-RA as an internal standard for RA and retinyl acetate as an internal standard for retinol and total retinyl ester^43-46. For the extraction of retinoids, 1 to 3 ml of 0.025 M KOH in ethanol was added to tissue homogenates (in vivo) or cell culture (in vitro) samples. Then 10 ml hexane (for in vivo tissue sample) or 5 ml hexane (for in vitro cell culture sample) was added to the aqueous ethanol phase. The samples were vortexed and centrifuged for 1 to 3 min at 1000 rpm in a Dynac centrifuge (Becton Dickinson) to facilitate phase separation and pellet precipitated protein. The hexane (top) phase containing nonpolar retinoids (ROL and RE) was removed. 4 M HCl (60-180 μl) was added to the remaining aqueous ethanol phase, samples were vortexed, and then polar retinoids (RA) were removed by extraction with a second 5-10 ml aliquot of hexane as described above. […]
Levels of RA were determined by liquid chromatography-multistage tandem mass spectrometry (LC-MRM^3) which is an LC-MS/MS method utilizing two distinct fragmentation events for enhanced selectivity^43. RA was measured using a Shimadzu Prominence UFLC XR liquid chromatography system (Shimadzu, Columbia, MD) coupled to an AB Sciex 5500 or 6500+ QTRAP hybrid triple quadrupole mass spectrometer (AB Sciex, Framingham, MA) using atmospheric pressure chemical ionization (APCI) operated in positive ion mode as previously described^43. […]

cells = test: Entry of dsRNA (PIC) into cells, stain (Example 2); conditions: after pre-treatment with RA

CC1=C(/C=C/C(C)=C/C=C/C(C)=C/C(=O)O)C(C)(C)CCC1 [RA, all-trans-retinoic acid]
ALDH1A3 protein [1]: robustly increased

Polyinosinic-polycytidylic acid [Poly (I:C)]
Poly (I:C)-induced RA accumulation ([2]; TLR3 siRNA-transfected human keratinocytes, 0.1 μg per ml, 48 hrs): dependent on TLR3 | RA synthesis ([2]; human keratinocytes transfected with MDA5- or RIG-I-siRNA): still induce RA synthesis | retinol (ROL) and retinyl ester (RE) quantities ([2]; human keratinocytes treated with Poly (I:C)): not modified | RA abundance ([2]; human keratinocytes, cell lysates and culture media, 0.5 μg per ml, 48 hrs): markedly increased | ALDH1A3, KRT15 and KRT19 protein expression ([1]; human keratinocytes following Poly (I:C) stimulation): upregulated | ALDH1A3 protein [1]: robustly increased | accumulation of PIC in cells (cells): much more effectively
